Earlier results as cited in patent US6583123B2, “Aminosugar, glycosaminoglycan, and S-adenosylmethionine composition for the treatment and repair of connective tissue” (Nutramax Laboratories, Inc., priority 1996, dated 2003).

Tests used:
fibroblasts = conditions: in vitro
osteoarthritis = conditions: humans with osteoarthritis
wound healing = conditions: topical application, in vivo
[1] = some forms of exogenous SAM, given orally
[2] = SAM per se (not stable salts)
[3] = oral, humans, versus placebo
[4] = not given; remark: listed apart in the source

In the case of `N[C@H]1C(O)O[C@H](CO)[C@@H](O)[C@@H]1O` (stereo partly shown) [Glucosamine], the “synthesis of collagen and glycosaminoglycans” value (fibroblasts) is given as “increase the synthesis of collagen and glycosaminoglycans”, the “symptoms and cartilage integrity” value (osteoarthritis) is given as “reproducible improvement in symptoms and cartilage integrity” and the “absorption after oral administration” value (humans and animals) is given as “rapidly absorbed”. The “tissue localization of ingested glucosamine” value (oral) was “localizes to cartilage and joint tissues” and the wound healing (wound healing) was “enhanced wound healing”.
For `C[S+](CC[C@H](N)C(=O)[O-])C[C@H]1O[C@@H](n2cnc3c(N)ncnc32)[C@H](O)[C@@H]1O` (stereo partly shown) [SAM, S-Adenosylmethionine], the “stability in digestive juices” value [1] is given as “stable in digestive juices”, the stability [2] is given as “unstable” and the tolerability [3] is given as “tolerated to the same extent as placebo”.
For `Nc1ncnc2c1ncn2[C@@H]1O[C@H](CO)[C@@H](O)[C@H]1O` [adenosine], the anti-inflammatory effect (inflammation) is given as “more modest anti-inflammatory effect”.
In the case of `[Mn+2]` [manganese], the “dietary manganese absorbed by the body tissue” value [4] is given as “Approximately 40%”.
